Reference: article PMC9610943, “Truncated Pleurocidin Derivative with High Pepsin Hydrolysis Resistance to Combat Multidrug-Resistant Pathogens” (Pharmaceutics, 2022)
Values after ≈ are worked out from the molar mass of the structure shown. Like-named read-outs stand apart in the source and are kept apart here. Where no end group is shown, it is not given here.

How the values were obtained:
MRSA T144 = assay: microbe, parasite or virus in culture; format: cell-based, Staphylococcus aureus; details: MRSA T144, micro-broth dilution CLSI 2018, MHB, 37 °C, 16 to 18 h
Description: (§1) S. aureus ATCC 29213, E. coli ATCC 25922, S. enteritidis ATCC 13076 and A. baumannii ATCC 19609 were obtained from the American Type Culture Collection (ATCC). The remaining strains used in the experiment were all preserved strains in our laboratory. All strains were cultured in nutrient broth overnight to the logarithmic phase at 37 °C prior to each experiment.
(§2) The MICs of all drugs were determined by micro-broth dilution method according to CLSI 2018 guidelines. Briefly, a single colony of the bacterial strain was transferred to 1 mL of Mueller Hilton broth (MHB) and overnight at 37 °C and then 10 μL were cultured in a new 1 mL medium for 4 to 6 h, and then the bacterial culture at the logarithmic phase was diluted to 1 × 10^6 CFUs/mL. The assay was performed by adding 100 μL of each peptide solution at various concentrations (0.25 to 128 μg/mL) and 100 μL of diluted bacterial culture to different wells of a 96-well microtiter plate (Corning, NY, USA). After incubation at 37 °C for 16 to 18 h and then read its MIC value. MIC value is defined as the lowest drug concentration without visible bacteria.

MRSA 1530 = assay: microbe, parasite or virus in culture; format: cell-based, Staphylococcus aureus; details: MRSA 1530, micro-broth dilution CLSI 2018, MHB, 37 °C, 16 to 18 h
Description: as §1, §2

[1] = system: P. aeruginosa (VIM + tmexCD1-torJ1); assay: microbe, parasite or virus in culture; format: cell-based
Description: as §1, §2

P. aeruginosa PA14 = assay: microbe, parasite or virus in culture; format: cell-based
Description: as §1, §2

S. aureus ATCC 29213 = assay: microbe, parasite or virus in culture; format: cell-based
Description: as §1, §2

[2] = system: S. enteritidis ATCC 13076; assay: microbe, parasite or virus in culture; format: cell-based
Description: as §1, §2

E. coli C3 (blaNDM-1) = assay: microbe, parasite or virus in culture; format: cell-based; details: E. coli C3 (blaNDM-1), micro-broth dilution CLSI 2018, MHB, 37 °C, 16 to 18 h
Description: as §1, §2

A. baumannii ATCC 19609 = assay: microbe, parasite or virus in culture; format: cell-based; details: A. baumannii ATCC 19609, micro-broth dilution CLSI 2018, MHB, 37 °C, 16 to 18 h
Description: as §1, §2

E. coli G92 (mcr-1) = assay: microbe, parasite or virus in culture; format: cell-based; details: E. coli G92 (mcr-1), micro-broth dilution CLSI 2018, MHB, 37 °C, 16 to 18 h
Description: as §1, §2

[3] = system: S. aureus 215 (cfr + LZD^R); assay: microbe, parasite or virus in culture; format: cell-based
Description: as §1, §2

E. coli G6 (blaNDM-5) = assay: microbe, parasite or virus in culture; format: cell-based; details: E. coli G6 (blaNDM-5), micro-broth dilution CLSI 2018, MHB, 37 °C, 16 to 18 h
Description: as §1, §2

[4] = system: E. coli B2 (blaNDM-5 + mcr-1); assay: microbe, parasite or virus in culture; format: cell-based; details: E. coli B2 (blaNDM-5 + mcr-1), micro-broth dilution CLSI 2018, MHB, 37 °C, 16 to 18 h
Description: as §1, §2

E. coli B3-1 (tet(X4)) = assay: microbe, parasite or virus in culture; format: cell-based; details: E. coli B3-1 (tet(X4)), micro-broth dilution CLSI 2018, MHB, 37 °C, 16 to 18 h
Description: as §1, §2

[5] = system: E. faecalis A4 (VRE, VanA); assay: microbe, parasite or virus in culture; format: cell-based
Description: as §1, §2

E. coli 1F28 (tet(X4)) = assay: microbe, parasite or virus in culture; format: cell-based; details: E. coli 1F28 (tet(X4)), micro-broth dilution CLSI 2018, MHB, 37 °C, 16 to 18 h
Description: as §1, §2

E. coli ATCC 25922 = assay: microbe, parasite or virus in culture; format: cell-based
Description: as §1, §2

S. aureus G16 (RIF^R) = assay: microbe, parasite or virus in culture; format: cell-based
Description: as §1, §2

E. coli CP131 (mcr-3) = assay: microbe, parasite or virus in culture; format: cell-based; details: E. coli CP131 (mcr-3), micro-broth dilution CLSI 2018, MHB, 37 °C, 16 to 18 h
Description: as §1, §2

[6] = system: P. cibarius HNCF44W (blaNDM-1+ tet(X6)); assay: organism not typed; format: cell-based; details: P. cibarius HNCF44W (blaNDM-1+ tet(X6)), micro-broth dilution CLSI 2018, MHB, 37 °C, 16 to 18 h
Description: as §1, §2

[7] = Staphylococcus aureus, read-out: MIC
[8] = Escherichia coli, read-out: MIC

For GWGSFFKKAAHVGK [GK-1], the MIC (MRSA T144) was over 128 µg/mL, the MIC (MRSA 1530) was over 128 µg/mL and the MIC ([1]; P. aeruginosa (VIM + tmexCD1-torJ1), micro-broth dilution CLSI 2018, MHB, 37 °C, 16 to 18 h) was over 128 µg/mL. It also gave an MIC (P. aeruginosa PA14; P. aeruginosa PA14, micro-broth dilution CLSI 2018, MHB, 37 °C, 16 to 18 h) of over 128 µg/mL, an MIC (S. aureus ATCC 29213; S. aureus ATCC 29213, micro-broth dilution CLSI 2018, MHB, 37 °C, 16 to 18 h) of over 128 µg/mL and an MIC ([2]; S. enteritidis ATCC 13076, micro-broth dilution CLSI 2018, MHB, 37 °C, 16 to 18 h) of over 128 µg/mL. It also gave an MIC (E. coli C3 (blaNDM-1)) of over 128 µg/mL, an MIC (A. baumannii ATCC 19609) of over 128 µg/mL and an MIC (E. coli G92 (mcr-1)) of over 128 µg/mL. The MIC ([3]; S. aureus 215 (cfr + LZD^R), micro-broth dilution CLSI 2018, MHB, 37 °C, 16 to 18 h) was over 128 µg/mL, the MIC (E. coli G6 (blaNDM-5)) was over 128 µg/mL and the MIC [4] was over 128 µg/mL. It also gave an MIC (E. coli B3-1 (tet(X4))) of over 128 µg/mL, an MIC ([5]; E. faecalis A4 (VRE, VanA), micro-broth dilution CLSI 2018, MHB, 37 °C, 16 to 18 h) of over 128 µg/mL and an MIC (E. coli 1F28 (tet(X4))) of over 128 µg/mL. For the same molecule, the MIC (E. coli ATCC 25922; E. coli ATCC 25922, micro-broth dilution CLSI 2018, MHB, 37 °C, 16 to 18 h) was over 128 µg/mL, the MIC (S. aureus G16 (RIF^R); S. aureus G16 (RIF^R), micro-broth dilution CLSI 2018, MHB, 37 °C, 16 to 18 h) was over 128 µg/mL and the MIC (E. coli CP131 (mcr-3)) was over 128 µg/mL. It also gave an MIC [6] of over 128 µg/mL.

For `CN(C)c1cc(NC(=O)CNC(C)(C)C)c(O)c2c1C[C@H]1C[C@H]3[C@H](N(C)C)C(O)=C(C(N)=O)C(=O)[C@@]3(O)C(O)=C1C2=O` [Tig, tigecycline, reference compound], the MIC (MRSA T144; [7]) was 0.25 µg/mL (≈ 0.427 µM), the MIC (MRSA 1530; [7]) was 1 µg/mL (≈ 1.71 µM) and the MIC ([1]; Pseudomonas aeruginosa) was under 0.0625 µg/mL. The MIC (P. aeruginosa PA14; Pseudomonas aeruginosa, PA14) was under 0.0625 µg/mL, the MIC (S. aureus ATCC 29213; Staphylococcus aureus, ATCC29213) was 0.125 µg/mL (≈ 0.213 µM) and the MIC ([2]; Salmonella enterica) was 0.125 µg/mL (≈ 0.213 µM). The MIC (E. coli C3 (blaNDM-1); [8]) was 2 µg/mL (≈ 3.41 µM), the MIC (A. baumannii ATCC 19609; Acinetobacter baumannii, ATCC19609, read-out: MIC) was 0.25 µg/mL (≈ 0.427 µM) and the MIC (E. coli G92 (mcr-1); [8]) was 4 µg/mL (≈ 6.83 µM). It also gave an MIC ([3]; Staphylococcus aureus) of 0.25 µg/mL (≈ 0.427 µM), an MIC (E. coli G6 (blaNDM-5); [8]) of 2 µg/mL (≈ 3.41 µM) and an MIC [4, 8] of 2 µg/mL. It also gave an MIC (E. coli B3-1 (tet(X4)); [8]) of 32 µg/mL (≈ 54.6 µM), an MIC ([5]; Enterococcus faecalis, VRE) of under 0.0625 µg/mL and an MIC (E. coli 1F28 (tet(X4)); [8]) of 16 µg/mL (≈ 27.3 µM). The MIC (E. coli ATCC 25922; Escherichia coli, ATCC25922) was 0.125 µg/mL (≈ 0.213 µM), the MIC (S. aureus G16 (RIF^R); Staphylococcus aureus) was under 0.0625 µg/mL and the MIC (E. coli CP131 (mcr-3); [8]) was 2 µg/mL (≈ 3.41 µM). For the same molecule, the MIC ([6]; read-out: MIC) was 64 µg/mL (≈ 109 µM).
